Data taken from paper PMC6943664 (Molecules, 2019).
“And” between values parts separate entries of the source, which are not always exact repeats. Identical values can stand only once. Counter-ions that a name gives are not always drawn. Like-named read-outs stand apart in the source and are kept apart here.

How the values were obtained:
[1] = target: T1, butyrylcholinesterase from equine serum (Equus caballus, UniProt P81908); assay: biochemical; format: biochemical; details: for inhibition at 10 µM: read-out: BChE % inhibition at 10 μM; for IC50: BChE from equine serum, mean ±SEM of three
T1 construct: butyrylcholinesterase from equine serum; purchased Sigma Aldrich, Milan, Italy; host or cells: equine serum
T1 sequence (P81908 whole entry): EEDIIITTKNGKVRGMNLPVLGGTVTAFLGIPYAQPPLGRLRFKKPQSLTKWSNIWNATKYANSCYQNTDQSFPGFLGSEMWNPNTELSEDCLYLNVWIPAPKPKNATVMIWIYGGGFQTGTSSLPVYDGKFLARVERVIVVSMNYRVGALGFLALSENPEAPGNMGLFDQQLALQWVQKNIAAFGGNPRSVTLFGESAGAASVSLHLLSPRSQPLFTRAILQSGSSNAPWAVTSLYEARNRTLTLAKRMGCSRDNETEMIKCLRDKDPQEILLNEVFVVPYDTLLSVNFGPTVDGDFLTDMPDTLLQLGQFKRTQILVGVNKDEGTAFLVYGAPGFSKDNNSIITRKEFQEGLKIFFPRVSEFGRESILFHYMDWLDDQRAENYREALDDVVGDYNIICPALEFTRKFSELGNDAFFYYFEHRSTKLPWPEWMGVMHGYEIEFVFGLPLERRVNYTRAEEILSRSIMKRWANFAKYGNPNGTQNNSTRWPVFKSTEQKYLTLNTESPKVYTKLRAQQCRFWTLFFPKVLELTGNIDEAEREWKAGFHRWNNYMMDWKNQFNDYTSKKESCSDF
Protocol: (§1) In vitro enzymatic screening toward ChEs was carried out according to the known Ellman’s protocol, by using eeAChE and esBChE as highly homologous and cheaper surrogates for human enzymes. The enzyme inhibition assays on human MAOs were performed by applying already reported methods.
(§2) All enzymes and reagents were purchased from Sigma Aldrich, Milan, Italy. Inhibition of human recombinant MAO A and B was assayed by monitoring the fluorescence of 4-hydroxyquinoline produced from the oxidation of substrate kynuramine, following a previously published method. Acetylcholinesterase from electric eel and butyrylcholinesterase from equine serum were used in the Ellman’s spectrophotometric method as already described. In all cases, a 96-well plate procedure was used with an Infinite M1000 Pro plate reader (Tecan, Cernusco sul Naviglio, Italy). Inhibition values were determined as IC50 values by statistical analysis using Prism (GraphPad Prism version 5.00 for Windows, GraphPad Software, San Diego, CA, USA).

[2] = target: T2, Acetylcholinesterase from electric eel (Electrophorus electricus, UniProt O42275); assay: biochemical; format: biochemical; details: for IC50: AChE from electric eel, mean ±SEM of three; for inhibition at 10 µM: read-out: AChE % inhibition at 10 μM
T2 construct: purchased Sigma Aldrich, Milan, Italy
T2 sequence (O42275 24-633): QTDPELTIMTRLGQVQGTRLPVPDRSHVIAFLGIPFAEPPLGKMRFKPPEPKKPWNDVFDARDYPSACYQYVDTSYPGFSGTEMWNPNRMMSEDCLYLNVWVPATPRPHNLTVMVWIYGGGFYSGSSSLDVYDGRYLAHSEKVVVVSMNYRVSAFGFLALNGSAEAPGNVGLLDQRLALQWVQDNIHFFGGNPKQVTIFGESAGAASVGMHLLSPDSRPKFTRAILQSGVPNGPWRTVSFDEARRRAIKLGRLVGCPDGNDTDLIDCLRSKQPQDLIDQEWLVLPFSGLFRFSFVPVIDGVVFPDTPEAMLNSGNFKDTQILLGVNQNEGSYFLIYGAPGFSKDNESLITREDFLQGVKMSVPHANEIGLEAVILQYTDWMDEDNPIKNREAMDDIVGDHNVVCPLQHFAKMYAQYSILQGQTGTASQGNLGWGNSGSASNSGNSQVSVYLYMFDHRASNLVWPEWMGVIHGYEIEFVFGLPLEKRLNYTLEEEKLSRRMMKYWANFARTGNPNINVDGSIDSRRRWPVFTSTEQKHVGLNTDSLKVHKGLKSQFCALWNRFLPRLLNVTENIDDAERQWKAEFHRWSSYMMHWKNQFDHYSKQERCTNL
Protocol: as §1, §2

[3] = target: T3, human recombinant MAO A (Homo sapiens, UniProt P21397); assay: biochemical; details: for inhibition at 10 µM: read-out: MAO A % inhibition at 10 μM, mean ±SEM of three
T3 construct: purchased Sigma Aldrich, Milan, Italy
T3 sequence (P21397 1-527): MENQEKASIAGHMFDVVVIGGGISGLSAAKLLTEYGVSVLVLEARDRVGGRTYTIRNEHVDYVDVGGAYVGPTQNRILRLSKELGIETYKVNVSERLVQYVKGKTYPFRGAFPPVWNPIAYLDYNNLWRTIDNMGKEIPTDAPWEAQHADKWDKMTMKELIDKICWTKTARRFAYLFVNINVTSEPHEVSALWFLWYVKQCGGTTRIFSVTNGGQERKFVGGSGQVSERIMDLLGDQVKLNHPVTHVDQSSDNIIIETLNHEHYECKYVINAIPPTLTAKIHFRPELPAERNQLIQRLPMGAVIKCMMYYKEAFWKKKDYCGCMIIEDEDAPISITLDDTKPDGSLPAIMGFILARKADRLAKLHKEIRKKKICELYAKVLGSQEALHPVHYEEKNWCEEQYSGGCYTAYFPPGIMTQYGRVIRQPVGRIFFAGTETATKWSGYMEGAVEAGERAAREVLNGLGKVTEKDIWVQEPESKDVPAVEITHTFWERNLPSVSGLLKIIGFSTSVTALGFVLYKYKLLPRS
Protocol: as §1, §2

[4] = target: T4, human recombinant MAO B (Homo sapiens, UniProt P27338); assay: Human recombinant MAO B inhibition (kynuramine fluorescence); format: biochemical; details: mean ±SEM of three independent experiments
T4 construct: purchased Sigma Aldrich, Milan, Italy
T4 sequence (P27338 1-520): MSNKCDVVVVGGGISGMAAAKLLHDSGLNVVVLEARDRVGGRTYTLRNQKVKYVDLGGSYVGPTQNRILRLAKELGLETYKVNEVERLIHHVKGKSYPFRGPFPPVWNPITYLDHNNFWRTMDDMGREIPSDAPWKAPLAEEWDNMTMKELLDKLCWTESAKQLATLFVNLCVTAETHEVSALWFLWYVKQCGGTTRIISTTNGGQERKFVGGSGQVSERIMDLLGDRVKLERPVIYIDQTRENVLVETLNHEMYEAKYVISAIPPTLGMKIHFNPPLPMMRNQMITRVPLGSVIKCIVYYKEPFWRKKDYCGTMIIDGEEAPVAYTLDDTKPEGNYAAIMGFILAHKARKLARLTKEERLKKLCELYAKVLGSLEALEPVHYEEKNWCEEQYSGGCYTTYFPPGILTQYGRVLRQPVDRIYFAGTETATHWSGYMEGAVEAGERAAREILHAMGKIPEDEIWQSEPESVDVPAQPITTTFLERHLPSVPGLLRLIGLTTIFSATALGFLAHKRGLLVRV
Protocol: as §1, §2

[5] = human recombinant MAO, read-out: MAO B IC50
[6] = human recombinant MAO, mean ±SEM of three independent experiments, read-out: MAO A IC50

Compound	inhibition at 10 µM [1] [%]	IC50 [2] [nM]	inhibition at 10 µM ([3]; human recombinant MAO) [%]	IC50 [4, 5]	IC50 [3, 6] [nM]	IC50 [1] [nM]	inhibition at 10 µM [2] [%]	IC50 [3] [nM]	IC50 ([4]; MAO B IC50, human recombinant MAO) [nM]	BChE/MAO B IC50 ratio ([1]; esBChE vs human MAO B)	AChE/MAO B IC50 ratio ([2]; eeAChE vs human MAO B)
CNCc1cc(=O)oc2cc(OCc3cccc(N(C)C)c3)ccc12 [compound 4, 7-{[3-(Dimethylamino)benzyl]oxy}-4-[(methylamino)methyl]-2H-chromen-2-one]	34 ± 5	6000 ± 1500	49 ± 1	570 ± 50 nM	–	–	–	–	–	–	–
CNCc1cc(=O)oc2cc(OCc3cc(OC)cc(OC)c3)ccc12 [compound 5, 7-[(3,5-Dimethoxybenzyl)oxy]-4-[(methylamino)methyl]-2H-chromen-2-one]	20 ± 4	11000 ± 2000	–	67 ± 5 nM	1000 ± 100	–	–	–	–	–	–
CNCc1cc(=O)oc2cc(OCc3ccc4c(c3)OCO4)ccc12 [compound 6, 7-(1,3-benzodioxol-5-ylmethoxy)-4-[(methylamino)methyl]-2H-chromen-2-one]	–	8500 ± 1800	–	7.5 ± 0.1 nM	1200 ± 100	3400 ± 2100	–	–	–	–	–
CNCc1cc(=O)oc2cc(OCc3ccccc3)ccc12 [compound 7, 7-(benzyloxy)-4-[(methylamino)methyl]-2H-chromen-2-one]	17 ± 1	–	–	2.1 ± 0.2 nM	530 ± 10	–	26 ± 5	–	–	–	–
CNCc1cc(=O)oc2cc(OCc3cccc(F)c3)ccc12 [compound 9, 7-[(3-fluorobenzyl)oxy]-4-[(methylamino)methyl]-2H-chromen-2-one]	–	2700 ± 1000	–	1.3 ± 0.1 nM	1740 ± 40	4800 ± 300	–	–	–	–	–
CNCc1cc(=O)oc2c(C)c(OCc3cccc(Cl)c3)ccc12 [compound 10, 7-[(3-Chlorobenzyl)oxy]-8-methyl-4-[(methylamino)methyl]-2H-chromen-2-one]	46 ± 2	7200 ± 600	–	170 ± 10 nM	1000 ± 100	–	–	–	–	–	–
CNCc1cc(=O)oc2cc(OCc3cccc(Cl)c3)c(C)cc12 [compound 11, 7-[(3-Chlorobenzyl)oxy]-6-methyl-4-[(methylamino)methyl]-2H-chromen-2-one hydrochloride]	48.1 ± 0.6	–	–	–	–	–	47.1 ± 0.3	580 ± 30	68 ± 2	–	–
CNCc1cc(=O)oc2cc(OCc3cccc(Cl)c3)c(Cl)cc12 [compound 12, 6-Chloro-7-[(3-chlorobenzyl)oxy]-4-[(methylamino)methyl]-2H-chromen-2-one]	27 ± 2	7900 ± 400	48 ± 1	1000 ± 100 nM	–	–	–	–	–	–	–
O=c1cc(CNCc2ccccc2)c2ccc(OCc3cccc(Cl)c3)cc2o1 [compound 13, 4-[(benzylamino)methyl]-7-[(3-chlorobenzyl)oxy]-2H-chromen-2-one]	–	17000 ± 1000	24 ± 3	103 ± 1 nM	–	3400 ± 1300	–	–	–	–	–
CN(Cc1ccccc1)Cc1cc(=O)oc2cc(OCc3cccc(Cl)c3)ccc12 [compound 14, 4-{[benzyl(methyl)amino]methyl}-7-[(3-chlorobenzyl)oxy]-2H-chromen-2-one]	–	16000 ± 1000	28 ± 1	332 ± 26 nM	–	6300 ± 300	–	–	–	–	–
O=c1cc(CN2CCCC2)c2ccc(OCc3cccc(Cl)c3)cc2o1 [compound 15, 7-[(3-chlorobenzyl)oxy]-4-(pyrrolidin-1-ylmethyl)-2H-chromen-2-one]	14 ± 2	6600 ± 900	–	152 ± 20 nM	1120 ± 10	–	–	–	–	–	–
CN1CCN(Cc2cc(=O)oc3cc(OCc4cccc(Cl)c4)ccc23)CC1 [compound 16, 7-[(3-Chlorobenzyl)oxy]-4-[(4-methylpiperazin-1-yl)methyl]-2H-chromen-2-one]	–	3100 ± 600	32 ± 5	270 nM and 273 nM	–	2300 ± 900	–	–	–	9	11
O=c1cc(CN2CCOCC2)c2ccc(OCc3cccc(Cl)c3)cc2o1 [compound 17, 7-[(3-chlorobenzyl)oxy]-4-(morpholin-4-ylmethyl)-2H-chromen-2-one]	46 ± 2	6600 ± 1100	32 ± 3	172 ± 1 nM	–	–	–	–	–	–	–
